Test results from patent US10172832B2, “Amide derivatives of N-urea substituted amino acids as formyl peptide receptor like-1 (FPRL-1) receptor modulators” (Allergan, Inc., priority 2011, dated 2019).

Target: T1, FPRL-1 (Homo sapiens, UniProt P25090)
T1 construct: expressed in transfected cells
T1 sequence (P25090 1-351): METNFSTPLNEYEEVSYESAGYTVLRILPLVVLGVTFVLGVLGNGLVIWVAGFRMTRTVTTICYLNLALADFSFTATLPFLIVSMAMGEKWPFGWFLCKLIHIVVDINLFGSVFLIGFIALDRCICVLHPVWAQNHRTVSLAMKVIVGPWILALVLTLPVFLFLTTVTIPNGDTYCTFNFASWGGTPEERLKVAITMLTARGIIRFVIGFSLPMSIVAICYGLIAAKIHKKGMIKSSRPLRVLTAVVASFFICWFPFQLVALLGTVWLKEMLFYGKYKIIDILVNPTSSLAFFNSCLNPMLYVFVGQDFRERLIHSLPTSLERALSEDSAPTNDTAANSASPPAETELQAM
Assay: compound-induced calcium activity on FLIPR Tetra in CHO-Gα16 cells stably expressing FPRL1
Assay type: cell-based
Conditions: for FPRL-1 Ga16-CHO (Rel. eff.): relative efficacy; for EC50: tested 0.61 to 10,000 nM, read-out: FPRL-1 Ga16-CHO EC50
Method in brief: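 CHO-Gα16 cells stably expressing FPRL1, plated at 18,000 cells/well the day before, were read for compound-induced calcium response on FLIPR Tetra.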

Row | Structure (SMILES) | FPRL-1 Ga16-CHO (Rel. eff.) | EC50 [µM]
1 | CC(C)C[C@H](NC(=O)Nc1ccc(SC(F)(F)F)cc1)C(=O)NCC(=O)OC(C)(C)C [Compound 71, tert-butyl ({(2S)-4-methyl-2-[({4-[(trifluoromethyl)sulfanyl]phenyl}carbamoyl)amino]pentanoyl}amino)acetate] | (0.78) | 3.1
2 | CC(C)C[C@H](NC(=O)Nc1ccc(Br)cc1)C(=O)N[C@H](C(=O)OC(C)(C)C)c1ccccc1 [Compound 50, tert-butyl(2S)-{[(2S)-2-{[(4-bromophenyl)carbamoyl]amino}-4-methylpentanoyl]amino}(phenyl)ethanoate] | (1.02) | 0.122
3 | CC[C@H](C)[C@H](NC(=O)Nc1ccc(Br)cc1)C(=O)NCC(=O)OC(C)(C)C [Compound 11, tert-butyl{[(2S,3S)-2-{[(4-bromophenyl)carbamoyl]amino}-3-methylpentanoyl]amino}acetate] | (0.85) | 0.28
4 | CS(=O)(=O)CC[C@H](NC(=O)Nc1ccc(Br)cc1)C(=O)NCC(=O)O [Compound 83, {[(2S)-2-{[(4-bromophenyl)carbamoyl]amino}-4-(methylsulfonyl)butanoyl]amino}acetic acid] | (1.01) | 0.247
5 | CCC[C@H](NC(=O)Nc1ccc(Br)cc1)C(=O)NCC(=O)OC(C)(C)C [Compound 18, tert-butyl {[(2S)-2-{[(4-bromophenyl)carbamoyl]amino}-pentanoyl]amino}acetate] | (0.95) | 0.031
6 | CC[C@H](C)[C@H](NC(=O)Nc1ccc(Br)cc1)C(=O)NCC(C)=O [Compound 12, (2S,3S)-2-{[(4-bromophenyl)carbamoyl]amino}-3-methyl-N-(2-oxopropyl)pentanamide] | (0.97) | 0.01
7 | CCC[C@H](NC(=O)Nc1ccc(Br)cc1)C(=O)NCC(N)=O [Compound 30, (2S)-N-(2-amino-2-oxoethyl)-2-{[(4-bromophenyl)carbamoyl]amino}-pentanamide] | (0.97) | 0.0025
8 | CC(C)C[C@H](NC(=O)Nc1ccc(Br)cc1)C(=O)N[C@H](C(N)=O)c1ccccc1 [Compound 54, (2S)-N-[(1S)-2-amino-2-oxo-1-phenylethyl]-2-{[(4-bromophenyl)carbamoyl]amino}-4-methylpentanamide] | (0.99) | 0.084

More lines, now with the values ahead:

Row | FPRL-1 Ga16-CHO (Rel. eff.) | EC50 [µM] | Structure (SMILES)
9 | (0.86) | 0.757 | CC[C@H](C)[C@H](NC(=O)Nc1ccc(Br)cc1F)C(=O)NCC(=O)OC(C)(C)C [Compound 10, tert-butyl{[(2S,3S)-2-{[(4-bromo-2-fluorophenyl)carbamoyl]amino}-3-methylpentanoyl]amino}acetate]
10 | (0.97) | 1.24 | CC(C)(C)OC(=O)CNC(=O)[C@H](CCS(C)(=O)=O)NC(=O)Nc1ccc(Br)cc1 [Compound 81, tert-butyl {[(2S)-2-{[(4-bromophenyl)carbamoyl]amino}-4-(methylsulfonyl)butanoyl]amino}acetate]
11 | (1.03) | 0.0013 | CC(C)C[C@H](NC(=O)Nc1ccc(Br)cc1)C(=O)N[C@H](C(N)=O)C(C)C [Compound 46]
12 | (0.92) | 0.011 | CC(C)C[C@H](NC(=O)Nc1ccc(Br)cc1)C(=O)NCCO [Compound 26, (2S)-2-{[(4-bromophenyl)carbamoyl]amino}-N-(2-hydroxyethyl)-4-methylpentanamide]
13 | (1.04) | 0.019 | CCC(CC)(NC(=O)Nc1ccc(Br)cc1)C(=O)NCC(=O)O [Compound 58, {[2-{[(4-bromophenyl)carbamoyl]amino}-2-ethylbutanoyl]amino}acetic acid]
14 | (1.07) | 0.56 | CC(C)C[C@H](NC(=O)Nc1ccc(SC(F)(F)F)cc1)C(=O)NCC(=O)O [Compound 72, ({(2S)-4-methyl-2-[({4-[(trifluoromethyl)sulfanyl]phenyl}carbamoyl)amino]pentanoyl}amino)acetic acid]
